From US20200368239A1, “TREATMENT OF AMYOTROPHIC LATERAL SCLEROSIS USING TRAMETINIB” (priority 2019, published 2020)

Tests used:
[1] = system: LAMP1 / LC3 in spinal cord of SOD1-G93A ALS model mice; test: LC3 and LAMP1 immunofluorescence in spinal cord tissues (autophagosome-lysosome fusion); type: in vivo; settings: vs vehicle-treated ALS model mice
Protocol: (§1) Mice were perfused with ice-cold phosphate buffered saline (PBS) and followed by 4% paraformaldehyde (PFA). Spinal cords were dissected and analyzed by immunohistochemistry. For cryosections, spinal cords were prepared into sections of 10 μm slices. For immunostaining, the sections were incubated with anti-Map2 (Millipore, Burlington, Mass.), anti-Tuj 1 (Cell signaling, Danvers, Mass.), anti-SMI-32 (Biolegend, San Diego, Calif.), anti-LAMP1 (Abcam, Cambridge, UK), or anti-LC3 (Cell signaling) antibodies. This step was followed by incubation with Alexa Fluor 488-conjugated anti-mouse IgG (Thermo, Waltham, Mass.), Alexa Fluor 488-conjugated anti-rat IgG (Thermo), Alexa Fluor 555-conjugated anti-rabbit IgG secondary antibodies (Thermo). The sections were counterstained with DAPI. The immunofluorescent images were captured using a LSM700 Laser-Scanning confocal microscope (Carl Zeiss, Heildenheim, Germany). For Nissl staining, the sections were incubated with Nissl staining solution (0.1% w/v Cresyl Violet (Sigma, C-5042, USA) and 0.1% v/v glacial acetic acid). The length of the Map2 and Tuj 1 positive dendrites and axons were measured using Icy program. The LC3-LAMP1 co-localization was observed under a confocal microscopy using a LSM700 microscope (Carl Zeiss).

patients with ALS = test: Phase 1/2a clinical trial in patients with ALS; type: in vivo, human
Text: Patients are selected based on the following criteria for a sequential dose-escalation, randomized, active-controlled, phase ½a clinical trial to evaluate the safety, tolerability and efficacy of trametinib in patients with ALS.
Patients diagnosed as definite, probable or probable-laboratory-supported ALS according to El Escorial Criteria. Patients of less than 2 years after the onset of ALS. Patients who meet the criteria of K-ALSFRS-R score (total score of at least 30 and score of at least 2 for each item) and forced vital capacity (% FVC≥70%, or 60%≤% FVC<70% with K-ALSFRS-R score ≥3 for items 10 to 12).
Patients with primary lateral sclerosis, progressive muscular atrophy or lower motor neuron disease. […] Patients who have permanently ceased the administration of riluzole due to lack of tolerability and/or efficacy. […]
As primary outcome measures, safety and tolerability of trametinib is tested based on observation of adverse events. As secondary outcome measures, K-ALSFRS-R (Korean version of Amyotrophic Lateral Sclerosis Functional Rating Scale-Revised) scores are measured in the patients by independent outcome assessors. Additionally, change in forced vital capacity (FVC) from baseline, trough concentrations of trametinib in cerebrospinal fluid (CSF) and trough concentrations of trametinib in plasma are further measured.

[2] = system: mRNA expression in whole brain; test: Bulk RNA-Seq of whole brains of wild type mice after oral administration; type: in vivo; settings: FC ≥1.3, FDR <0.05
Protocol: To evaluate the transcriptional profiles in the brain, bulk RNA-Seq was performed using whole brains of wild type mice following oral administration of trametinib. Gene ontology terms were enriched at each weekly time point, indicating the relevance of cellular function such as synaptic potential, nervous system development, immune response, and incorrect protein folding in a temporal pattern (FIG. 3A). Decrease in MEK-ERK signaling with trametinib administration during week 1 and week 2 of administration can be indirectly confirmed through the decrease in expression of FGF receptor signaling and GPCR signaling related genes.
In the second week, we observed neuroblast proliferation-related and axon growth-related gene expression, followed by expression of genes for immune reaction and incorrect protein modification reaction in the third and fourth week, respectively. It is important to note that increase in the gene-sets associated with neurogenesis and the induction of lysosomal activity both occurred within the four-week period, as illustrated by the gene expression heatmap (FIGS. 4A-4B). […] Their FCs were between −2.26 and 3.71.
RNA was isolated from the mice whole brain and cDNA libraries for RNA sequencing were prepared using the TruSeq Stranded mRNA Prep Kit (Illumina, San Diego, Calif.) according to the manufacturer's guidelines (l). The libraries were sequenced on the Illumina Nextseq500 platform and the reads were mapped to the reference Mouse mm10 genome using Tophat v2.0.13. The total number of reads mapped to the transcriptomes were 24,532 genes and the genes with 0 count in at least one sample were removed before differential expression analysis. There was a total of 18,727 genes after the removal of genes with 0 count. To define differentially expressed genes (DEG), we set up a stringent statistic cutoff of fold change (FC) of ≥1.3 and a false discovery rate (FDR)<0.05. A total of 500 DEGs was identified between the vehicle-treated group and trametinib-treated group in the first week, 498 DEGs in the second week, 446 genes in the third week and 538 genes in the fourth week. Gene ontology was performed with Gene Ontology program of the gene ontology consortium. Heatmap analysis was performed by R studio using the DEG list related with synapse, neurogenesis and lysosome.

[3] = system: spinal cord neurons of SOD1-G93A ALS model mice; test: Histological and immunohistochemical analysis of spinal cord of SOD1-G93A ALS model mice; type: in vivo; settings: vs vehicle-treated ALS mice
Protocol: After the behavioral tests above were completed, the spinal cords of the euthanized mice were removed, fixed, and processed. The spinal cord tissue was sliced to a thickness of 10 μm with the CM1860 cryomicrotome (Leica Biosystems, Germany). Immunohistochemical analysis was performed using various staining methods to examine the spinal cord tissue, motor neurons, and protein expression in the motor neurons.
Through Nissl staining, the condition and distribution of neurons can be examined. Nissl staining solution contained 0.1% w/v Cresyl Violet (Sigma, C-5042, USA) and 0.1% v/v glacial acetic acid.
In order to examine the condition of the motor neurons, the spinal cord tissues were subjected to NeuN immunofluorescent staining to observe all types of neurons (red in FIG. 11) and SMI-32 staining (SMI-32 antibody binds specifically to motor neurons) to observe motor neurons (green in FIG. 11).
A longitudinal section of the spinal cord tissue was stained with tau antibody to examine the condition of the axonal nerve tract.
A cross-section of the spinal cord was stained with Tuj 1, an axonal marker, to examine the condition of axons in the tested mice.
MAP2 staining was performed to observe the condition of dendrites projecting out of the neurons.
as §1

MEK1/2 = test: Western blot of pERKs and ERKs in mice whole brain lysates after oral administration; type: in vivo; settings: wild type mice
Protocol: FIG. 2 provides a representative image of western blot analysis of pERKs and ERKs in mice whole brain lysates. ERKs were included as a loading control.
Cells and tissues were washed twice with ice-cold phosphate-buffered saline (PBS) and extracted by homogenizing with Ripa buffer (10 mM HEPES, 1.5 mM MgCl2, 10 mM KCl, 0.01 M DTT, protease inhibitors, pH 7.9). Lysates were centrifuged at 13,000 rpm for 20 min at 4° C. and the protein content in the supernatant was determined using Bradford assay (Bio-rad, Hercules, Calif.). Protein from each sample was subjected to 8%-15% SDS-PAGE, and the resolved proteins were transferred to nitrocellulose or polyvinylidene fluoride membrane. The membranes were blocked with 5% nonfat milk powder in Tris-buffered saline/Tween 20 (TBST) for 1 h at room temperature, then incubated with anti-phospho-ERK (Cell signaling), anti-ERK (Cell signaling), anti-LAMP1 (Abcam), anti-LC3 (Cell signaling), anti-cathepsin B (Cell signaling), anti-p62 (Cell signaling), anti-p62 (5114, Cell signaling), anti-phospho-mTOR (5536, Cell signaling), anti-mTOR (2983, Cell signaling), anti-phospho-ULK1 (14202, Cell signaling), anti-ULK1 (8054, Cell signaling), anti-TFEB (852501, Biolegend), and anti-GAPDH (Cell signaling) overnight at 4° C. […] The detected signals were quantified using a LAS-4000 system (Fuji Film, Tokyo, Japan).

SOD1-G93A ALS model mice = test: Survival of SOD1-G93A ALS model mice; type: in vivo; settings: 0.1 or 0.2 mg/kg/day oral
Protocol: Therapeutic efficacy of trametinib was examined in the SOD1-G93A transgenic mouse model, the most widely used animal model for ALS research. The SOD1-G93A ALS model mice, TgN [B6SJL-Tg (SOD1-G93A) 1Gur], were purchased from Jackson Laboratory (ME, USA) and bred at 21±2° C., 35-65% RH.
In addition, immunohistochemical analysis was performed with the spinal cords of the mice to evaluate the efficacy of trametinib on the tissue, cellular, and molecular level.
After the onset of symptoms (around 16 weeks after birth), trametinib was orally administered to two groups of ALS model mice every day at the doses of 0.1 mg/kg or 0.2 mg/kg (mpk). As controls, wild type (WT) mice and ALS model mice were treated with vehicle.
Mice with motor performance score at or lower than 3 were euthanized as they were not able to feed themselves. Survival days for each group of mice were counted.

in vivo = settings: mouse, po, 0.8 mg/kg
Protocol: Trametinib (Medchemexpress, Monmouth Junction, N.J.) was micronized and suspended in the vehicle containing 5% mannitol, 1.5% hydroxypropyl methylcellulose and 0.2% sodium lauryl sulfate. For pharmacokinetic analysis, 0.05, 0.2 and 0.8 mg/kg of trametinib were orally administered in to 7-week-old normal mice (n=5 per group) as a single administration. Mice were sacrificed at each identical time points.

## CC(=O)Nc1cccc(-n2c(=O)n(C3CC3)c(=O)c3c(Nc4ccc(I)cc4F)n(C)c(=O)c(C)c32)c1 [Trametinib, acetamide, N-[3-[3-cyclopropyl-5-[(2-fluoro-4-iodophenyl)amino]-3,4,6,7-tetrahydro-6,8-dimethyl-2,4,7-trioxopyrido[4,3-d]pyrimidin-1(2H)-yl]phenyl]]
[1]
  LAMP1 signal (lysosome marker): LAMP1 signal was restored
  fusion of lysosome and autophagosome (LC3-LAMP1 co-localization): restored as well
Patients with ALS; 0.5, 1 or 2 mg trametinib
  symptoms associated with ALS in treated patients: reduction of a behavioral, physiological and/or pathological symptom associated with ALS
Patients with ALS; some patients
  level of one or more markers after treatment: change in the level of one or markers
[2]; first week
  number of differentially expressed genes (DEGs) vs vehicle-treated group: 500
[2]; fourth week
  number of differentially expressed genes (DEGs) vs vehicle-treated group: 538
[2]; second week
  number of differentially expressed genes (DEGs) vs vehicle-treated group: 498
[2]; third week
  number of differentially expressed genes (DEGs) vs vehicle-treated group: 446
[3]
  axon condition (Tuj 1 staining, cross-section): relatively well protected long axons
  axonal tract condition (tau staining, longitudinal section): reduced number of abnormal axonal spheroids
  dendrite condition (MAP2 staining): quite well protected
  motor neuron shape (SMI-32 and NeuN staining): elongated neurite shape was relatively well preserved
  number of neurons in spinal cord (Nissl staining): retained more neurons than the vehicle-treated group
MEK1/2
  pERK expression in the brain: significant decrease in pERK expression
SOD1-G93A ALS model mice
  survival compared to the vehicle-treated groups: prolonged
In vivo
  Kp: 0.477
